Measured values: patent US20200206233A1 (INTEGRAL BIOSCIENCES PRIVATE LIMITED, priority 2018, published 2020)

Target: T1, IDH1 mutant (R132H) (Homo sapiens, UniProt O75874, R132H)
T1 construct: purchased BPS Bioscience 71099-2
Test: Mutant IDH1-R132H Fluorescence Assay (Resazurin based)
Format: biochemical
Conditions: 10 nM IDH1 R132H, 4 mM α-ketoglutarate, NADPH, 1.5 h at room temperature
Description: IC50 values of compounds against IDH1 mutant (R132H) was determined by Resazurin based Fluorescence assay. Assays were performed in Buffer (25 mM Tris HCl, 150 mM NaCl, 10 mM MgCl2, 0.03% BSA, 2 mM 1-mercaptoethanol) where total reaction volume was 12.5 μL in low-volume 384-well plates (Cat #4511, Corning). Serially diluted compounds (3-fold) were incubated with cocktail of α-ketoglutarate (4 mM; Cat #75892-25G, Sigma), NADPH ([…]; Cat # N1630-100MG, Sigma) and buffer for 5 min, following IDH1 R132H mutant (10 nM; Cat #71099-2, BPS Bioscience) was added and incubated in dark at room temperature for 1.5 h. After 1.5 h, 6.25 μL detection solution containing Resazurin ([…]; (Cat #62758-13-8, Sigma) and Diaphorase (40 ug/ml; Cat # D2197-300UN, Sigma) in buffer was added and incubated for 15 min. Readings were taken in a Synergy Neo Plate reader (BioTek, Winooski) at single excitation of 540 nm and emission at 590 nm respectively.
The % (percent) activity of test samples was calculated as (Sample−Min)×100/(Max−Min). [Max: DMSO control, complete reaction with enzyme with DMSO and Min: No enzyme with DMSO]. Percent inhibition (100−% activity) was fitted to the “four-parameter logistic model” in XLfit for determination of IC50 values.

T1 sequence (O75874 whole entry R132H): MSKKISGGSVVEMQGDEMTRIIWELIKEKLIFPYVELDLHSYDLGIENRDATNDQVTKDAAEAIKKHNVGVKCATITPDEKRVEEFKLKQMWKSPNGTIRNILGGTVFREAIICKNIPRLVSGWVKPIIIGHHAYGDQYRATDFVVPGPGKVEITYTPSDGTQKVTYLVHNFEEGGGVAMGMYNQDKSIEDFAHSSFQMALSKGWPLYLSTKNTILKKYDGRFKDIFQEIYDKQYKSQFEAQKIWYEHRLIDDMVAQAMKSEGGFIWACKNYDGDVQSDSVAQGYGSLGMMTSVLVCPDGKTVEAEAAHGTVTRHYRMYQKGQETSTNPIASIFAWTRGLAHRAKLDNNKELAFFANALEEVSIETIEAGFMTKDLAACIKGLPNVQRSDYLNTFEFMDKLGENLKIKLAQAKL

Compound	IC50 [µM]
CC(C)[C@H]1COC(=O)N1c1ncnc(N[C@H](C)c2cn(-c3ccc(Cl)cc3)cn2)n1 [Compound 1.14, (S)-3-(4-((R)-1-(1-(4-chlorophenyl)-1H-imidazol-4-yl)ethylamino)-1,3,5-triazin-2-yl)-4-isopropyloxazolidin-2-one]	24.5
CC[C@H]1COC(=O)N1c1nc(C)nc(NC(C)c2cn(-c3ccc(Cl)cc3)cn2)n1 (single isomer, unassigned) [Compound 1.51]	> 22.9
CC[C@H]1COC(=O)N1c1nc(C)nc(N[C@@H](C)c2cnc3ccc(Cl)nn23)n1 [Compound 1.69, (S)-3-(4-((S)-1-(6-chloroimidazo[1,2-b]pyridazin-3-yl)ethylamino)-6-methyl-1,3,5-triazin-2-yl)-4-ethyloxazolidin-2-one]	> 30
CC[C@H]1COC(=O)N1c1nc(N[C@@H](C)c2ccc(Oc3ccccc3)cc2)nc(N(C)C)n1 [Compound 1.63, (S)-3-(4-(dimethylamino)-6-((S)-1-(4-phenoxyphenyl)ethylamino)-1,3,5-triazin-2-yl)-4-ethyloxazolidin-2-one]	2.4
CC(C)[C@H]1COC(=O)N1c1ncnc(N[C@H](C)c2cc3cc(Cl)ccc3[nH]c2=O)n1 [Compound 1.22, (S)-3-(4-((R)-1-(6-chloro-2-oxo-1,2-dihydroquinolin-3-yl)ethylamino)-1,3,5-triazin-2-yl)-4-isopropyloxazolidin-2-one]	> 30
CC[C@H]1COC(=O)N1c1nc(C)nc(N[C@H](C)c2cc3cc(Cl)ccc3[nH]c2=O)n1 [Compound 1.39, (S)-3-(4-((R)-1-(6-chloro-2-oxo-1,2-dihydroquinolin-3-yl)ethylamino)-6-methyl-1,3,5-triazin-2-yl)-4-ethyloxazolidin-2-one]	> 30
CC(C)[C@H]1COC(=O)N1c1ncnc(N[C@@H](C)c2ccccn2)n1 [Compound 1.30, (S)-4-isopropyl-3-(4-((S)-1-(pyridin-2-yl)ethylamino)-1,3,5-triazin-2-yl)oxazolidin-2-one]	> 30
Cc1nc(N[C@@H](C)c2ccc(Oc3ccccc3)cc2)nc(N2C(=O)OC[C@@H]2C)n1 [Compound 1.65, (S)-4-methyl-3-(4-methyl-6-((S)-1-(4-phenoxyphenyl)ethylamino)-1,3,5-triazin-2-yl)oxazolidin-2-one]	2.65
CC(C)[C@H]1COC(=O)N1c1ncnc(N[C@@H](C)c2ccc(N3CCN(C)CC3)cn2)n1 [Compound 1.24, (S)-4-isopropyl-3-(4-((S)-1-(5-(4-methylpiperazin-1-yl)pyridin-2-yl)ethylamino)-1,3,5-triazin-2-yl)oxazolidin-2-one]	> 30
CC[C@H]1COC(=O)N1c1nc(C)nc(N[C@H](C)c2cc3cc(Br)ccc3[nH]c2=O)n1 [Compound 1.67, (S)-3-(4-((R)-1-(6-bromo-2-oxo-1,2-dihydroquinolin-3-yl)ethylamino)-6-methyl-1,3,5-triazin-2-yl)-4-ethyloxazolidin-2-one]	12.3
CC[C@H]1COC(=O)N1c1nc(C)nc(N[C@@H](C)c2cc3ccccc3[nH]c2=O)n1 [Compound 1.45, (S)-4-ethyl-3-(4-methyl-6-((S)-1-(2-oxo-1,2-dihydroquinolin-3-yl)ethylamino)-1,3,5-triazin-2-yl)oxazolidin-2-one]	1.79
CC[C@H]1COC(=O)N1c1nc(C)nc(N[C@H](C)c2cnc3ccc(Cl)nn23)n1 [Compound 1.70, (S)-3-(4-((R)-1-(6-chloroimidazo[1,2-b]pyridazin-3-yl)ethylamino)-6-methyl-1,3,5-triazin-2-yl)-4-ethyloxazolidin-2-one]	> 30
CC[C@H]1COC(=O)N1c1nc(N[C@@H](C)c2ccc(Oc3ccccc3)cc2)nc(C2CC2)n1 [Compound 1.71, (S)-3-(4-cyclopropyl-6-((S)-1-(4-phenoxyphenyl)ethylamino)-1,3,5-triazin-2-yl)-4-ethyloxazolidin-2-one]	2.44
CC(C)[C@H]1COC(=O)N1c1ncnc(N[C@H](C)c2ccc(N3CCN(C)CC3)cn2)n1 [Compound 1.25, (S)-4-isopropyl-3-(4-((R)-1-(5-(4-methylpiperazin-1-yl)pyridin-2-yl)ethylamino)-1,3,5-triazin-2-yl)oxazolidin-2-one]	> 30
CC[C@H]1COC(=O)N1c1nc(C)nc(N[C@H](C)c2cc3cc(Cl)c(OC)cc3[nH]c2=O)n1 [Compound 1.43, (S)-3-(4-((R)-1-(6-chloro-7-methoxy-2-oxo-1,2-dihydroquinolin-3-yl)ethylamino)-6-methyl-1,3,5-triazin-2-yl)-4-ethyloxazolidin-2-one]	6.83

Continued, values first:

IC50 [µM]	Compound
> 30	CC[C@H]1COC(=O)N1c1nc(C)nc(N[C@H](C)c2cc3cc(C)ccc3[nH]c2=O)n1 [Compound 1.109, (S)-4-ethyl-3-(4-methyl-6-((R)-1-(6-methyl-2-oxo-1,2-dihydroquinolin-3-yl)ethylamino)-1,3,5-triazin-2-yl)oxazolidin-2-one]
2.51	CC[C@H]1COC(=O)N1c1nc(C)nc(NC(C)(C)c2ccc(Oc3ccccc3)cc2)n1 [Compound 1.111, (S)-4-ethyl-3-(4-methyl-6-(2-(4-phenoxyphenyl)propan-2-ylamino)-1,3,5-triazin-2-yl)oxazolidin-2-one]
> 23.3	CC[C@H]1COC(=O)N1c1nc(C)nc(N[C@H](C)c2ccc(Oc3ccccc3)cn2)n1 [Compound 1.76, (S)-4-ethyl-3-(4-methyl-6-((R)-1-(5-phenoxypyridin-2-yl)ethylamino)-1,3,5-triazin-2-yl)oxazolidin-2-one]
> 30	CC[C@H]1COC(=O)N1c1nc(C)nc(N[C@H](C)c2ccc(CN3CCN(C(C)=O)CC3)cc2)n1 [Compound 1.99, (S)-3-(4-((R)-1-(4-((4-acetylpiperazin-1-yl)methyl)phenyl)ethylamino)-6-methyl-1,3,5-triazin-2-yl)-4-ethyloxazolidin-2-one]
> 30	CC[C@H]1COC(=O)N1c1nc(C)nc(N[C@H](C)c2cc3cc(-c4ccc(Cl)cc4)ccc3[nH]c2=O)n1 [Compound 1.107, (S)-3-(4-((R)-1-(6-(4-chlorophenyl)-2-oxo-1,2-dihydroquinolin-3-yl)ethylamino)-6-methyl-1,3,5-triazin-2-yl)-4-ethyloxazolidin-2-one]
> 30	CC[C@H]1COC(=O)N1c1nc(C)nc(N[C@H](C)c2ccc(OCc3ccccc3)cc2)n1 [Compound 1.72, (S)-3-(4-((R)-1-(4-(benzyloxy)phenyl)ethylamino)-6-methyl-1,3,5-triazin-2-yl)-4-ethyloxazolidin-2-one]
> 30	CC[C@H]1COC(=O)N1c1nc(C)nc(N[C@H](C)c2ccc(Sc3ccc(F)cc3)cc2)n1 [Compound 1.91, (S)-4-ethyl-3-(4-((R)-1-(4-(4-fluorophenylthio)phenyl)ethylamino)-6-methyl-1,3,5-triazin-2-yl)oxazolidin-2-one]
2.24	CC[C@H]1COC(=O)N1c1nc(C)nc(N[C@@H](C)c2ccc3c(-c4ccccc4)c[nH]c3c2)n1 [Compound 1.100, (S)-4-ethyl-3-(4-methyl-6-((S)-1-(3-phenyl-1H-indol-6-yl)ethylamino)-1,3,5-triazin-2-yl)oxazolidin-2-one]
5.95	CC[C@H]1COC(=O)N1c1nc(C)nc(N[C@@H](C)c2ccc(Oc3ccccc3)nc2)n1 [Compound 1.77, (S)-4-ethyl-3-(4-methyl-6-((S)-1-(6-phenoxypyridin-3-yl)ethylamino)-1,3,5-triazin-2-yl)oxazolidin-2-one]
> 30	CC[C@H]1COC(=O)N1c1nc(C)nc(N[C@@H](C)c2cc3cc(-c4ccc(Cl)cc4)ccc3[nH]c2=O)n1 [Compound 1.106, (S)-3-(4-((S)-1-(6-(4-chlorophenyl)-2-oxo-1,2-dihydroquinolin-3-yl)ethylamino)-6-methyl-1,3,5-triazin-2-yl)-4-ethyloxazolidin-2-one]
> 30	CC[C@H]1COC(=O)N1c1nc(C)nc(N[C@@H](C)c2ccc(C(=O)Nc3ccccc3)cc2)n1 [Compound 1.103, 4-((S)-1-(4-((S)-4-ethyl-2-oxooxazolidin-3-yl)-6-methyl-1,3,5-triazin-2-ylamino)ethyl)-N-phenylbenzamide]
2.64	CC[C@H]1COC(=O)N1c1nc(C)nc(N[C@@H](C)c2ccc(Cc3ccccc3)cc2)n1 [Compound 1.95, (S)-3-(4-((S)-1-(4-benzylphenyl)ethylamino)-6-methyl-1,3,5-triazin-2-yl)-4-ethyloxazolidin-2-one]
1.54	CC[C@H]1COC(=O)N1c1nc(C)nc(N[C@@H](C)c2ccc3c(ccn3-c3ccccc3)c2)n1 [Compound 1.90, (S)-4-ethyl-3-(4-methyl-6-((S)-1-(1-phenyl-1H-indol-5-yl)ethylamino)-1,3,5-triazin-2-yl)oxazolidin-2-one]
15.4	CC[C@H]1COC(=O)N1c1nc(C)nc(N[C@@H](C)c2ccc(OCc3ccccc3)cc2)n1 [Compound 1.73, (S)-3-(4-((S)-1-(4-(benzyloxy)phenyl)ethylamino)-6-methyl-1,3,5-triazin-2-yl)-4-ethyloxazolidin-2-one]
